Calls of active or inactive are those of the source. No cut-off for these calls is given here. Residues, ends and D or L forms follow the SMILES beside them. *: point of attachment. OBn = c1ccc(CO*)cc1
Experiments:
[1] = test system: CCRF S-180; experiment: Antiproliferative activity against mouse S180 cells after 48 hrs by MTT assay; type: functional, cell-based; details: CCRF S-180, 48 h
[2] = test system: K562; experiment: Antiproliferative activity against human K562 cells after 48 hrs by MTT assay; type: functional, cell-based; details: K562, 48 h
[3] = test system: B16; experiment: Antiproliferative activity against mouse B16 cells after 48 hrs by MTT assay; type: functional, cell-based; details: B16, 48 h
[4] = test system: H22; experiment: Antiproliferative activity against mouse H22 cells after 48 hrs by MTT assay; type: functional, cell-based; details: H22, 48 h
[5] = test system: HepG2; experiment: Antiproliferative activity against human HepG2 cells after 48 hrs by MTT assay; type: functional, cell-based; details: HepG2, 48 h
[6] = test system: CCRF S-180; experiment: Antitumor activity against mouse S180 cells allografted in ICR mouse assessed as tumor growth inhibition at 8.9 mg/kg, ip qd for 7 days relative to control; type: functional; details: CCRF S-180, ip, 168 h, route intraperitoneal, read-out: TGI
[7] = test system: Mus musculus; experiment: Toxicity in mouse S180 cells allografted ICR mouse assessed as liver weight at 8.9 mg/kg, ip qd for 7 days relative to control; type: organism-based, CCRF S-180; parameters: dose 8.9 mg/kg, route intraperitoneal; details: in vivo, 168 h
[8] = test system: Mus musculus; experiment: Toxicity in mouse S180 cells allografted ICR mouse assessed as brain weight at 8.9 mg/kg, ip qd for 7 days relative to control; type: organism-based, CCRF S-180; parameters: dose 8.9 mg/kg, route intraperitoneal; details: in vivo, 168 h
[9] = test system: Mus musculus; experiment: Toxicity in mouse S180 cells allografted ICR mouse assessed as kidney weight at 8.9 mg/kg, ip qd for 7 days relative to control; type: organism-based, CCRF S-180; parameters: dose 8.9 mg/kg, route intraperitoneal; details: in vivo, 168 h
[10] = test system: Mus musculus; experiment: Toxicity in mouse S180 cells allografted ICR mouse assessed as spleen index at 8.9 mg/kg, ip qd for 7 days relative to control; type: organism-based, CCRF S-180; parameters: dose 8.9 mg/kg, route intraperitoneal; details: in vivo, 168 h
[11] = test system: Mus musculus; experiment: Toxicity in mouse S180 cells allografted ICR mouse assessed as increase of body weight at 8.9 mg/kg, ip qd for 7 days relative to control; type: organism-based, CCRF S-180; parameters: dose 8.9 mg/kg, route intraperitoneal; details: in vivo, 168 h
[12] = test system: Mus musculus; experiment: Neurotoxicity in ICR mouse assessed as neurotoxic behavior up to 500 mg/kg, ip after 7 days; type: toxicity, organism-based; parameters: dose 500 mg/kg, route intraperitoneal; details: in vivo, 168 h
[13] = test system: Mus musculus; experiment: Toxicity in ICR mouse assessed as mortality up to 500 mg/kg, ip after 7 days; type: organism-based; parameters: dose 500 mg/kg, route intraperitoneal; details: in vivo, 168 h
[14] = test system: Mus musculus; experiment: Toxicity in ICR mouse assessed as changes in organs up to 500 mg/kg, ip after 7 days by necropsy analysis; type: organism-based; parameters: dose 500 mg/kg, route intraperitoneal; details: in vivo, 168 h
[15] = Acute toxicity in ip dosed ICR mouse after 7 days; type: organism-based; details: in vivo
[16] = test system: CCRF S-180; experiment: Antitumor activity against mouse S180 cells allografted in ICR mouse assessed as tumor growth inhibition at 0.89 mg/kg, ip qd for 7 days relative to control; type: functional; details: CCRF S-180, ip, 168 h, route intraperitoneal, read-out: TGI
[17] = test system: CCRF S-180; experiment: Antitumor activity against mouse S180 cells allografted in ICR mouse assessed as tumor growth inhibition at 0.089 mg/kg, ip qd for 7 days relative to control; type: functional; details: CCRF S-180, ip, 168 h, route intraperitoneal, read-out: TGI
[18] = test system: CCRF S-180; experiment: Antitumor activity against mouse S180 cells allografted in ip dosed ICR mouse assessed as tumor growth inhibition administered qd for 7 days relative to control; type: functional, organism-based
[19] = test system: Calf thymus DNA; experiment: Binding affinity to 70 uM of calf thymus DNA assessed as decrease in fluorescence intensity at 50 uM by fluorescence spectra analysis; type: nucleic-acid assay; parameters: scale not given: the % may be the effect or the level left; details: Bos taurus
[20] = test system: Calf thymus DNA; experiment: Binding affinity to 10 to 70 uM of calf thymus DNA assessed as decrease in fluorescence intensity at 50 uM by fluorescence spectra analysis; type: nucleic-acid assay; details: Bos taurus
[21] = test system: Calf thymus DNA; experiment: Binding affinity to calf thymus DNA assessed as increase of DNA […] at compound-DNA ratio up to 0.36; type: nucleic-acid assay; details: Bos taurus
[22] = test system: Calf thymus DNA; experiment: Binding affinity to calf thymus DNA assessed as melting temperature at 10 uM; type: nucleic-acid assay; details: Bos taurus

Row | SMILES | IC50 [1] [µM] | IC50 [2] [µM] | IC50 [3] [µM] | IC50 [4] [µM] | IC50 [5] [µM] | inhibition in vivo at 8.9 mg/kg [6] [%] | Activity [7] | Activity [8] | Activity [9] | Activity [10] | Activity [11] | Activity [12] | Activity [13] | Activity [14] | LD50 at 168 h [15] [mg/kg] | other results
1 | N[C@@H](CCC(=O)O)C(=O)N[C@@H](Cc1c[nH]c2ccccc12)C(=O)N[C@@H](Cc1c[nH]c2ccccc12)C(=O)OCc1ccccc1 (H-Glu-Trp-Trp-OBn) | 16.6 | 14.3 | 21.4 | 14.7 | 22.3 | 78.8 | Non-toxic | Non-toxic | Non-toxic | Non-toxic | Toxic | Non-toxic | Non-toxic | Non-toxic | > 500 | 
2 | Nc1ccn([C@@H]2O[C@H](CO)[C@@H](O)[C@@H]2O)c(=O)n1 [CYTARABINE] | 40.3 | 43.6 | 49.2 | 37.8 | 38.1 | 31.9 |  |  |  |  |  |  |  |  |  | inhibition in vivo at 0.89 mg/kg [16]: 20.6%; inhibition in vivo at 0.089 mg/kg [17]: 7.86%
3 | N[C@@H](Cc1ccc(O)cc1)C(=O)N[C@@H](Cc1c[nH]c2ccccc12)C(=O)N[C@@H](Cc1c[nH]c2ccccc12)C(=O)OCc1ccccc1 (H-Tyr-Trp-Trp-OBn) | 22.9 | 21.3 | 24.8 | 23 | 23.6 | 53.4 | Non-toxic | Non-toxic | Non-toxic | Non-toxic | Toxic | Non-toxic | Non-toxic | Non-toxic | > 500 | 
4 | CSCC[C@H](N)C(=O)N[C@@H](Cc1c[nH]c2ccccc12)C(=O)N[C@@H](Cc1c[nH]c2ccccc12)C(=O)OCc1ccccc1 (H-Met-Trp-Trp-OBn) | 19.8 | 17 | 25.2 | 17.5 | 24.3 | 61.5 | Non-toxic | Non-toxic | Non-toxic | Non-toxic | Toxic | Non-toxic | Non-toxic | Non-toxic | > 500 | 
5 | N[C@@H](CS)C(=O)N[C@@H](Cc1c[nH]c2ccccc12)C(=O)N[C@@H](Cc1c[nH]c2ccccc12)C(=O)OCc1ccccc1 (H-Cys-Trp-Trp-OBn) | 26.2 | 20.6 | 32.8 | 24.7 | 35 | 48.4 | Non-toxic | Non-toxic | Non-toxic | Non-toxic | Toxic | Non-toxic | Non-toxic | Non-toxic | > 500 | 
6 | N[C@@H](Cc1ccccc1)C(=O)N[C@@H](Cc1c[nH]c2ccccc12)C(=O)N[C@@H](Cc1c[nH]c2ccccc12)C(=O)OCc1ccccc1 (H-Phe-Trp-Trp-OBn) | 34 | 43.7 | 34 | 37.6 | 41.2 | 24.7 | Non-toxic | Non-toxic | Non-toxic | Non-toxic | Toxic | Non-toxic | Non-toxic | Non-toxic | > 500 | 
7 | NC(=O)CC[C@H](N)C(=O)N[C@@H](Cc1c[nH]c2ccccc12)C(=O)N[C@@H](Cc1c[nH]c2ccccc12)C(=O)OCc1ccccc1 (H-Gln-Trp-Trp-OBn) | 27.6 | 24.6 | 31.8 | 25.1 | 26.2 | 43 | Non-toxic | Non-toxic | Non-toxic | Non-toxic | Toxic | Non-toxic | Non-toxic | Non-toxic | > 500 | 
8 | NC(=O)C[C@H](N)C(=O)N[C@@H](Cc1c[nH]c2ccccc12)C(=O)N[C@@H](Cc1c[nH]c2ccccc12)C(=O)OCc1ccccc1 (H-Asn-Trp-Trp-OBn) | 13.5 | 11 | 13.8 | 11 | 11.9 | 85.1 | Non-toxic | Non-toxic | Non-toxic | Non-toxic | Toxic | Non-toxic | Non-toxic | Non-toxic | > 500 | TGI [18]: Dose-dependent effect; inhibition in vivo at 0.89 mg/kg [16]: 46.7%; inhibition in vivo at 0.089 mg/kg [17]: 26.6%; Activity [19]: 35.3%; Activity [20]: Active; Activity [21]: Active; Tm [22]: 20.8 °C
9 | N=C(N)NCCC[C@H](N)C(=O)N[C@@H](Cc1c[nH]c2ccccc12)C(=O)N[C@@H](Cc1c[nH]c2ccccc12)C(=O)OCc1ccccc1 (H-Arg-Trp-Trp-OBn) | 29.4 | 27.2 | 37.4 | 27.5 | 38.1 | 45.1 | Non-toxic | Non-toxic | Non-toxic | Non-toxic | Toxic | Non-toxic | Non-toxic | Non-toxic | > 500 | 
10 | N[C@@H](CO)C(=O)N[C@@H](Cc1c[nH]c2ccccc12)C(=O)N[C@@H](Cc1c[nH]c2ccccc12)C(=O)OCc1ccccc1 (H-Ser-Trp-Trp-OBn) | 26.3 | 25.6 | 48.4 | 25.2 | 25.9 | 48.2 | Non-toxic | Non-toxic | Non-toxic | Non-toxic | Toxic | Non-toxic | Non-toxic | Non-toxic | > 500 | 
11 | CC(C)[C@H](N)C(=O)N[C@@H](Cc1c[nH]c2ccccc12)C(=O)N[C@@H](Cc1c[nH]c2ccccc12)C(=O)OCc1ccccc1 (H-Val-Trp-Trp-OBn) | 36.1 | 40.4 | 50.1 | 36 | 37.4 | 33.5 | Non-toxic | Non-toxic | Non-toxic | Non-toxic | Toxic | Non-toxic | Non-toxic | Non-toxic | > 500 | 
12 | N[C@@H](Cc1c[nH]c2ccccc12)C(=O)N[C@@H](Cc1c[nH]c2ccccc12)C(=O)N[C@@H](Cc1c[nH]c2ccccc12)C(=O)OCc1ccccc1 (H-Trp-Trp-Trp-OBn) | 142 | 164 | 162 | 106 | 163 | -19.1 | Non-toxic | Non-toxic | Non-toxic | Non-toxic | Toxic |  |  |  |  | 
13 | CC[C@H](C)[C@H](N)C(=O)N[C@@H](Cc1c[nH]c2ccccc12)C(=O)N[C@@H](Cc1c[nH]c2ccccc12)C(=O)OCc1ccccc1 (H-Ile-Trp-Trp-OBn) | 15.1 | 16.2 | 17.2 | 16.1 | 15.1 | 80.1 | Non-toxic | Non-toxic | Non-toxic | Non-toxic | Toxic | Non-toxic | Non-toxic | Non-toxic | > 500 | 

— ChEMBL document CHEMBL3217570, “A class of novel AA-Trp-Trp-OBzl: synthesis, in vitro anti-proliferation, in vivo anti-tumor action, and intercalation mechanism” (Medchemcomm, 2011)
